# What was measured:
# Format in all cases: cell-based
# [1] = molecular target: proteins of U3A human fibrosarcoma cells (4462 proteins detected) (Homo sapiens, UniProt P08174); conditions: protein CD55; U3A cells
# [2] = molecular target: proteins of U3A human fibrosarcoma cells (4462 proteins detected) (Homo sapiens, UniProt Q9UH65); conditions: protein SWAP70; soluble abundance after heat, U3A cells
# [3] = molecular target: proteins of U3A human fibrosarcoma cells (4462 proteins detected) (Homo sapiens, UniProt O75663); conditions: protein TIPRL; soluble abundance after heat, U3A cells
# [4] = molecular target: proteins of U3A human fibrosarcoma cells (4462 proteins detected) (Homo sapiens, UniProt O00505); conditions: protein KPNA3; U3A cells
# [5] = molecular target: proteins of U3A human fibrosarcoma cells (4462 proteins detected) (Homo sapiens, UniProt O75792); conditions: protein RNASEH2A; U3A cells
# [6] = molecular target: proteins of U3A human fibrosarcoma cells (4462 proteins detected) (Homo sapiens, UniProt Q9UEY8); conditions: protein ADD3; U3A cells
# [7] = molecular target: proteins of U3A human fibrosarcoma cells (4462 proteins detected) (Homo sapiens, UniProt Q8WW01); conditions: protein TSEN15; U3A, 10 μM, 2 h
# [8] = molecular target: proteins of U3A human fibrosarcoma cells (4462 proteins detected) (Homo sapiens, UniProt P61081); conditions: protein UBE2M; U3A cells
# [9] = molecular target: proteins of U3A human fibrosarcoma cells (4462 proteins detected) (Homo sapiens, UniProt Q8WW12); conditions: protein PCNP, U3A cells
# [10] = molecular target: proteins of U3A human fibrosarcoma cells (4462 proteins detected) (Homo sapiens, UniProt Q96DM3); conditions: protein C18orf8; U3A cells
# [11] = molecular target: proteins of U3A human fibrosarcoma cells (4462 proteins detected) (Homo sapiens, UniProt O95453); conditions: protein PARN; U3A cells
# [12] = molecular target: proteins of U3A human fibrosarcoma cells (4462 proteins detected) (Homo sapiens, UniProt P57768); conditions: protein SNX16; U3A, 10 μM, 2 h
# [13] = molecular target: proteins of U3A human fibrosarcoma cells (4462 proteins detected) (Homo sapiens, UniProt Q9Y4X5); conditions: protein ARIH1; U3A cells
# [14] = molecular target: proteins of U3A human fibrosarcoma cells (4462 proteins detected) (Homo sapiens, UniProt Q9BT78); conditions: protein COPS4; U3A cells
# [15] = molecular target: proteins of U3A human fibrosarcoma cells (4462 proteins detected) (Homo sapiens, UniProt Q9NSA3); conditions: protein CTNNBIP1; U3A, 10 μM, 2 h
# [16] = molecular target: proteins of U3A human fibrosarcoma cells (4462 proteins detected) (Homo sapiens, UniProt P29353); conditions: protein SHC1; U3A cells
# [17] = molecular target: proteins of U3A human fibrosarcoma cells (4462 proteins detected) (Homo sapiens, UniProt P61923); conditions: protein COPZ1; U3A cells
# [18] = molecular target: proteins of U3A human fibrosarcoma cells (4462 proteins detected) (Homo sapiens, UniProt P05556); conditions: protein ITGB1; U3A cells
# [19] = molecular target: proteins of U3A human fibrosarcoma cells (4462 proteins detected) (Homo sapiens, UniProt Q9Y2K3); conditions: protein MYH15; U3A cells
# [20] = molecular target: proteins of U3A human fibrosarcoma cells (4462 proteins detected) (Homo sapiens, UniProt Q92530); conditions: protein PSMF1; soluble abundance after heat, U3A cells
# [21] = molecular target: proteins of U3A human fibrosarcoma cells (4462 proteins detected) (Homo sapiens, UniProt Q9UIS9); conditions: protein MBD1; U3A cells
# [22] = molecular target: proteins of U3A human fibrosarcoma cells (4462 proteins detected) (Homo sapiens, UniProt Q12805); conditions: protein EFEMP1; U3A cells
# [23] = molecular target: proteins of U3A human fibrosarcoma cells (4462 proteins detected) (Homo sapiens, UniProt Q9BZE1); conditions: protein MRPL37; U3A, 10 μM, 2 h
# [24] = molecular target: proteins of U3A human fibrosarcoma cells (4462 proteins detected) (Homo sapiens, UniProt Q8IWW6); conditions: protein ARHGAP12; soluble abundance after heat, U3A cells
# [25] = molecular target: proteins of U3A human fibrosarcoma cells (4462 proteins detected) (Homo sapiens, UniProt Q9Y237); conditions: protein PIN4, U3A cells
# [26] = molecular target: proteins of U3A human fibrosarcoma cells (4462 proteins detected) (Homo sapiens, UniProt P57772); conditions: protein EEFSEC, U3A cells
# [27] = molecular target: proteins of U3A human fibrosarcoma cells (4462 proteins detected) (Homo sapiens, UniProt Q9NRY5); conditions: protein FAM114A2; U3A cells
# [28] = molecular target: proteins of U3A human fibrosarcoma cells (4462 proteins detected) (Homo sapiens, UniProt P82663); conditions: protein MRPS25; U3A cells
# [29] = molecular target: proteins of U3A human fibrosarcoma cells (4462 proteins detected) (Homo sapiens, UniProt Q92688); conditions: protein ANP32B, U3A cells
# [30] = molecular target: proteins of U3A human fibrosarcoma cells (4462 proteins detected) (Homo sapiens, UniProt Q96D46); conditions: protein NMD3; soluble abundance after heat, U3A cells
# Sequence of proteins of U3A human fibrosarcoma cells (4462 proteins detected) (Homo sapiens, UniProt Q96D46) (Q96D46 whole entry): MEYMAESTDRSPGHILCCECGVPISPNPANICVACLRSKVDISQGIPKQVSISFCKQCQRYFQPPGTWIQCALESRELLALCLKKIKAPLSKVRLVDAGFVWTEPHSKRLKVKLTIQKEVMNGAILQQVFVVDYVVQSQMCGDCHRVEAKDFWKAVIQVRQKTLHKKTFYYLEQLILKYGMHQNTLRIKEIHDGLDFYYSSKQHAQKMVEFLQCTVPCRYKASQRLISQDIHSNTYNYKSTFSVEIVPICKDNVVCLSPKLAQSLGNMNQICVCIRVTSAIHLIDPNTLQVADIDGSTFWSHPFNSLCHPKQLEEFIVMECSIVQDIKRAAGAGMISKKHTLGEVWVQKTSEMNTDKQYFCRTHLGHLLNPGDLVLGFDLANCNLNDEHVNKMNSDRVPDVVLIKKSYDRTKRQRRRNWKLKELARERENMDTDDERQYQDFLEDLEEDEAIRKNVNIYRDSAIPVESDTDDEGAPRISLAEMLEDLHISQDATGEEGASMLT
# Sequence of proteins of U3A human fibrosarcoma cells (4462 proteins detected) (Homo sapiens, UniProt P05556) (P05556 21-798): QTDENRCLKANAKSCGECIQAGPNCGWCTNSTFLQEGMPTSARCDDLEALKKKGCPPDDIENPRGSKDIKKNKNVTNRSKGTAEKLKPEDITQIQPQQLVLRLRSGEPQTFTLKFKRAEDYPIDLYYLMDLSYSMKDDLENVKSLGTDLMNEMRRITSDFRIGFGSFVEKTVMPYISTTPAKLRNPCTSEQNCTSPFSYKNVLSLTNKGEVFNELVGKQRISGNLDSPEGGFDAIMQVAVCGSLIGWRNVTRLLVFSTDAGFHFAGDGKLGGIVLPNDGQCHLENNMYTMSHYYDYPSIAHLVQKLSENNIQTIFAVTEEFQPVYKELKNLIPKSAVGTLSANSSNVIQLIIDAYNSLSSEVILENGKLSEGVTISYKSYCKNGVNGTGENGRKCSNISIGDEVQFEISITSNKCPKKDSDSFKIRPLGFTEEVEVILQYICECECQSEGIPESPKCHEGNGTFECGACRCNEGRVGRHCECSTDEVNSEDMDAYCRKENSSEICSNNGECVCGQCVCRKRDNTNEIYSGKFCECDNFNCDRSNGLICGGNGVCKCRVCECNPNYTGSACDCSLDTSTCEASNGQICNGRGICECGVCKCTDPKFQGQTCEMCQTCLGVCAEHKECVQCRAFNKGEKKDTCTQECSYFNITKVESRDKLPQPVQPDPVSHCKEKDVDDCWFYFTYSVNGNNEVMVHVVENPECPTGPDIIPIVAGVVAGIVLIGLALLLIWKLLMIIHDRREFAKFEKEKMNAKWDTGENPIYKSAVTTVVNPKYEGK
# Sequence of proteins of U3A human fibrosarcoma cells (4462 proteins detected) (Homo sapiens, UniProt O95453) (O95453 whole entry): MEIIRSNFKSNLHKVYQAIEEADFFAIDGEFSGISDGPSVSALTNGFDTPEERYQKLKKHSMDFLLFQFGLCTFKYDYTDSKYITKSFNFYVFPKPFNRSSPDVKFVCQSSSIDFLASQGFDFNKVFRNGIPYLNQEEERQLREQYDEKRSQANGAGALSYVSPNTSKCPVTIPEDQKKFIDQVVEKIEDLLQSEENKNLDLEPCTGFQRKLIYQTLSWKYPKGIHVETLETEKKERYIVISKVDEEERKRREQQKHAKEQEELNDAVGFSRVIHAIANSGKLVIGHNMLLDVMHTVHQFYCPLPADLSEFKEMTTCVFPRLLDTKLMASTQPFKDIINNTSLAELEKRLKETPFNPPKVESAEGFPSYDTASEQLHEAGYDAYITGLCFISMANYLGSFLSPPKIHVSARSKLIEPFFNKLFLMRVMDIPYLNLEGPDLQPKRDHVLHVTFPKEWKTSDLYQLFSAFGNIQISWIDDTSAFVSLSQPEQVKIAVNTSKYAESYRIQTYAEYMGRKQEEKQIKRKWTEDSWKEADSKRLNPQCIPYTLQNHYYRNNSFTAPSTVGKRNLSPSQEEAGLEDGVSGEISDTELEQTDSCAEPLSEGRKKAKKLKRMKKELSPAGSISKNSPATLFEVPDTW
# Sequence of proteins of U3A human fibrosarcoma cells (4462 proteins detected) (Homo sapiens, UniProt P29353) (P29353 whole entry): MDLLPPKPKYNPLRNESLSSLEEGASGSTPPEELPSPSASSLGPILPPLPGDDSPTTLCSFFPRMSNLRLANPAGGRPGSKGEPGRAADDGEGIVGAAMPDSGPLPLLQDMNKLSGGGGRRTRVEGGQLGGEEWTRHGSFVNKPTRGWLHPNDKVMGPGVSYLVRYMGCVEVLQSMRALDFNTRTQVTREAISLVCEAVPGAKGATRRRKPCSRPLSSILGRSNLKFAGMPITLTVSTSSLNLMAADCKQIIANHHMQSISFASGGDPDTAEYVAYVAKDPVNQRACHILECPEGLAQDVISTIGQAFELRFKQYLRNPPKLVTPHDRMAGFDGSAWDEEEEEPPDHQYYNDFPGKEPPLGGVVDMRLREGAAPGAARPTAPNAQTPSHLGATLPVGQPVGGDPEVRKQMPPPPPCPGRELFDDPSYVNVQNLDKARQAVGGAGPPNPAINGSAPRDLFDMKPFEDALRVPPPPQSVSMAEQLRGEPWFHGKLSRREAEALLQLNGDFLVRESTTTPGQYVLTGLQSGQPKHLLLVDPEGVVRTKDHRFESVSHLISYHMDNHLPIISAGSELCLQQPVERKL
# Sequence of proteins of U3A human fibrosarcoma cells (4462 proteins detected) (Homo sapiens, UniProt Q9NSA3) (Q9NSA3 whole entry): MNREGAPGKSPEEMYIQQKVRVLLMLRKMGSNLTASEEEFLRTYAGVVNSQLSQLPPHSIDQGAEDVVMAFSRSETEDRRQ
# Sequence of proteins of U3A human fibrosarcoma cells (4462 proteins detected) (Homo sapiens, UniProt Q9UH65) (Q9UH65 whole entry): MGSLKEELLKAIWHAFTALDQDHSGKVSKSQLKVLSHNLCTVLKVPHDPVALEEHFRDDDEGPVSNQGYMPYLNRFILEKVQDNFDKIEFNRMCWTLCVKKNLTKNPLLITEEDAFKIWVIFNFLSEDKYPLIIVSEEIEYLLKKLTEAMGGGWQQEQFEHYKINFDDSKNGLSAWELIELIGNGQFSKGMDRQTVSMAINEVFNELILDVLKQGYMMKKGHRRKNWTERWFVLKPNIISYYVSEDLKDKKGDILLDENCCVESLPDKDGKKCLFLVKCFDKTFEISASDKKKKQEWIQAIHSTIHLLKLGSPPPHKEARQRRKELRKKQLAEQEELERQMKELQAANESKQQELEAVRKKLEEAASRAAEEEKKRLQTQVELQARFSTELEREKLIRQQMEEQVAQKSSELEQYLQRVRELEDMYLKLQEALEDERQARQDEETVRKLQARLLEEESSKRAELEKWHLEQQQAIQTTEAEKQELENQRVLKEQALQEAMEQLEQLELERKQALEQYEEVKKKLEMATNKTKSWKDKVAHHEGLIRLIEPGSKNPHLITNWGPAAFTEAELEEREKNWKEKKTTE
# Sequence of proteins of U3A human fibrosarcoma cells (4462 proteins detected) (Homo sapiens, UniProt Q96DM3) (Q96DM3 whole entry): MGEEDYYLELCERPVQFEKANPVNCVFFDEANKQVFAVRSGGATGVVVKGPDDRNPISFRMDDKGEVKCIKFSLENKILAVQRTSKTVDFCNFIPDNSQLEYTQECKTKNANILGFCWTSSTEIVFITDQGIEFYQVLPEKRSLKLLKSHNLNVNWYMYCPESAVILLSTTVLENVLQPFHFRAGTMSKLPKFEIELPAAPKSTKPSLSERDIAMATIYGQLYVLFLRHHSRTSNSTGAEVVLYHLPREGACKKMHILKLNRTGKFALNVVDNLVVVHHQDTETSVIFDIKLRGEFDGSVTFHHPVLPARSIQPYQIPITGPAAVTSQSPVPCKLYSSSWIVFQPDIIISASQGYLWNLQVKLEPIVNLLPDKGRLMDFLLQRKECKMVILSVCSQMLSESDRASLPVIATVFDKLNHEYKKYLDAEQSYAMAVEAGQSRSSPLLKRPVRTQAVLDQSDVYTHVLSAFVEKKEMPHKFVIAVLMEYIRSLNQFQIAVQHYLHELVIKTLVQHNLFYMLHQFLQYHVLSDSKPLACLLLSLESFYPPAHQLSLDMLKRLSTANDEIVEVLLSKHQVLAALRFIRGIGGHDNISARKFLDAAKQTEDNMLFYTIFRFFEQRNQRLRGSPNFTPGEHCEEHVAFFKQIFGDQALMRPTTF
# Sequence of proteins of U3A human fibrosarcoma cells (4462 proteins detected) (Homo sapiens, UniProt Q9UEY8) (Q9UEY8 whole entry): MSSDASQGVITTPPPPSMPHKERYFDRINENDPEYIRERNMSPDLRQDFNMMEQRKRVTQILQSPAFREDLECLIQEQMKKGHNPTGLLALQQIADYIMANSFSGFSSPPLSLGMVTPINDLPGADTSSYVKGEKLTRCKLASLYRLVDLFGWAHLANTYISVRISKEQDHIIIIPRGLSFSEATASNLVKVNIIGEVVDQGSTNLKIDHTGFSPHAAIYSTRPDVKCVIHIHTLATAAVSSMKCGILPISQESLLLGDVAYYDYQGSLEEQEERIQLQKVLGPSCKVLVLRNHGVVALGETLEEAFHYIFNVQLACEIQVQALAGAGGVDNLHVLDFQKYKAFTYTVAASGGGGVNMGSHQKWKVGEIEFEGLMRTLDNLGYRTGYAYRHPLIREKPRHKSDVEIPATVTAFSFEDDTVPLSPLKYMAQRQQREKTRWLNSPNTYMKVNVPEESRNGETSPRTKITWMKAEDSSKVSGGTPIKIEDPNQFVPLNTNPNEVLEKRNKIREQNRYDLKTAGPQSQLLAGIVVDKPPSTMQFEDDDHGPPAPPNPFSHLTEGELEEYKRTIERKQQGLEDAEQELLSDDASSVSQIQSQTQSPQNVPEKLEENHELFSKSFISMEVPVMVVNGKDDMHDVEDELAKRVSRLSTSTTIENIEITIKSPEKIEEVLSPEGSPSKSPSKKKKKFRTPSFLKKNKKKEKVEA
# Sequence of proteins of U3A human fibrosarcoma cells (4462 proteins detected) (Homo sapiens, UniProt O75663) (O75663 whole entry): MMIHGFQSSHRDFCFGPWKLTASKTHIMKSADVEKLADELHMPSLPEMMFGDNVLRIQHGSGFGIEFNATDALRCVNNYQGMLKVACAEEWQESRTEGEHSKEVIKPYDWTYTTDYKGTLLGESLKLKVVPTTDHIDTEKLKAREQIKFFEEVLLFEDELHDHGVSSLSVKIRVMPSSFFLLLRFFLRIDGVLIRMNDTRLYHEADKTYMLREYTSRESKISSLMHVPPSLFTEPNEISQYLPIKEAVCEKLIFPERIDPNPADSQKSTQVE
# Sequence of proteins of U3A human fibrosarcoma cells (4462 proteins detected) (Homo sapiens, UniProt Q8WW01) (Q8WW01 whole entry): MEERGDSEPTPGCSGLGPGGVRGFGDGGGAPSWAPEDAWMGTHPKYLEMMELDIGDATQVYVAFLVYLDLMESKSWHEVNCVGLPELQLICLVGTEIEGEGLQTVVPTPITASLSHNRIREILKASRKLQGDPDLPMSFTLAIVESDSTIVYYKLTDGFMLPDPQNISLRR
compound,measurement,setting,value
CCc1nc(N)nc(N)c1-c1ccc(Cl)cc1 [pyrimethamine],Log2 (PYR/DMSO),[1],0.20
same,Log2 (PYR/DMSO),[2],0.14
same,Log2 (PYR/DMSO),[3],0.14
same,Log2 (PYR/DMSO),[4],0.18
same,Log2 (PYR/DMSO),[5],0.16
same,Log2 (PYR/DMSO),[6],0.16
same,"Log2 (PYR/DMSO), TSEN15",[7],-0.15
same,Log2 (PYR/DMSO),[8],0.19
same,Log2 (PYR/DMSO),[9],-0.04
same,Log2 (PYR/DMSO),[10],0.17
same,Log2 (PYR/DMSO),[11],0.21
same,"Log2 (PYR/DMSO), SNX16",[12],-0.18
same,Log2 (PYR/DMSO),[13],0.16
same,Log2 (PYR/DMSO),[14],0.20
same,"Log2 (PYR/DMSO), CTNNBIP1",[15],-0.15
same,Log2 (PYR/DMSO),[16],0.19
same,Log2 (PYR/DMSO),[17],0.18
same,Log2 (PYR/DMSO),[18],0.16
same,Log2 (PYR/DMSO),[19],0.17
same,Log2 (PYR/DMSO),[20],0.13
same,Log2 (PYR/DMSO),[21],0.19
same,Log2 (PYR/DMSO),[22],0.18
same,"Log2 (PYR/DMSO), MRPL37",[23],0.29
same,Log2 (PYR/DMSO),[24],0.13
same,Log2 (PYR/DMSO),[25],-0.05
same,Log2 (PYR/DMSO),[26],-0.04
same,Log2 (PYR/DMSO),[27],0.17
same,Log2 (PYR/DMSO),[28],0.17
same,Log2 (PYR/DMSO),[29],-0.03
same,Log2 (PYR/DMSO),[30],0.13

# — publication PMC8800111 (The Journal of Biological Chemistry, 2021)
